Results published in US20240384350A1, “METHODS OF TREATING CANCER WITH KINASE INHIBITORS” (BOARD OF REGENTS, THE UNIVERSITY OF TEXAS SYSTEM, priority 2021, published 2024).

What was measured:
Assay in all cases: Ba/F3 drug screening, Cell Titer Glo, IC50 Mut/WT
Type in all cases: cell-based
EGFR S784F = target: T1, EGFR S784F (Homo sapiens, UniProt P00533, S784F); conditions: Classical-Like, 72 hours
T1 construct: expressed in transfected cells; host or cells: Ba/F3 cells, retroviral pBabe-Puro vector (vector made by GeneScript from EGFR WT)

EGFR L861Q = target: T2, EGFR L861Q (Homo sapiens, UniProt P00533, L861Q); conditions: Classical-Like, 72 hours
T2 construct: expressed in transfected cells; host or cells: Ba/F3 cells, retroviral pBabe-Puro vector

EGFR S811F = target: T3, EGFR S811F (Homo sapiens, UniProt P00533, S811F); conditions: Classical-Like, 72 hours
T3 construct: expressed in transfected cells; host or cells: Ba/F3 cells, retroviral pBabe-Puro vector (vector made by GeneScript from EGFR WT)
Protocol: Data represent the ratio of the IC50 value for a given TKI for cells with a classical-like EGFR mutation to the IC50 value for cells with wildtype EGFR.
(§1) Ba/F3 cell generation, drug screening, and IC50 approximations. Ba/F3 cells were obtained as a gift from Dr. Gordon Mills (MD Anderson Cancer Center), and maintained in RPMI (Sigma) containing 10% FBS, 1% penicillin/streptomycin, and 10 ng/ml recombinant mIL-3 (R&D Biosystems). To establish stable Ba/F3 cell lines, Ba/F3 cells were transduced with retroviruses containing mutant EGFR plasmids for 12-24 hours.
After 48-72 hours of transduction, 2 μg/ml puromycin (Invitrogen) was added to Ba/F3 cell lines in complete RPMI. To select for EGFR positive cell lines, cells were stained with PE-EGFR (Biolegend) and sorted by FACS. After sorting, EGFR positive cells were maintained in RPMI containing 10% FBS, 1% penicillin/streptomycin, and 1 ng/ml EGF to support cell viability. […] Shortly, cells were plated in 384-well plates (Greiner Bio-One) at 2000-3000 cells per well in technical triplicate. Seven different concentrations of TKIs or DMSO vehicle were added to reach a final volume of 40 μL per well. After 72 hours, 11 μL of Cell Titer Glo (Promega) was added to each well. Plates were incubated for a minimum of 10 minutes, and bioluminescence was determined using a FLUOstar OPTIMA plate reader (BMG LABTECH). Raw bioluminescence values were normalized to DMSO control treated cells, and values were plotted in GraphPad Prism. […] Drug screens were performed in technical triplicate on each plate and either duplicate or triplicate biological replicates.

EGFR N771dupN = target: T4, EGFR N771dupN (Homo sapiens, UniProt P00533, DUP771-771); conditions: Ex20, 72 hours
T4 construct: expressed in transfected cells; host or cells: Ba/F3 cells, retroviral pBabe-Puro vector

EGFR N771dupN G724S = target: T5, EGFR N771dupN G724S (Homo sapiens, UniProt P00533, DUP771-771/G724S); conditions: Ex20, 72 hours
T5 construct: expressed in transfected cells; host or cells: Ba/F3 cells, retroviral pBabe-Puro vector (vector made by GeneScript from EGFR G724S, c.2313_2314insAAC)

EGFR T790M = target: T6, EGFR T790M (Homo sapiens, UniProt P00533, T790M); conditions: T790M-like-3S, 72 hours
T6 construct: expressed in transfected cells; host or cells: Ba/F3

EGFR L858R/T790M = target: T7, EGFR L858R/T790M (Homo sapiens, UniProt P00533, L858R/T790M); conditions: T790M-like-3S, 72 hours
T7 construct: expressed in transfected cells; host or cells: Ba/F3

EGFR G719A T790M = target: T8, EGFR G719A T790M (Homo sapiens, UniProt P00533, G719A/T790M); conditions: T790M-like-3S, 72 hours
T8 construct: expressed in transfected cells; host or cells: Ba/F3

EGFR G719S T790M = target: T9, EGFR G719S T790M (Homo sapiens, UniProt P00533, G719S/T790M); conditions: T790M-like-3S, 72 hours
T9 construct: expressed in transfected cells; host or cells: Ba/F3
Protocol: (§2) Data represent the ratio of the IC50 value for a given TKI for cells with a T790M-like-3S EGFR mutation to the IC50 value for cells with wildtype EGFR.
as §1
(§3) After 48-72 hours of transduction, 2 μg/ml puromycin (Invitrogen) was added to Ba/F3 cell lines in complete RPMI. To select for EGFR positive cell lines, cells were stained with PE-EGFR (Biolegend) and sorted by FACS. After sorting, EGFR positive cells were maintained in RPMI containing 10% FBS, 1% penicillin/streptomycin, and 1 ng/ml EGF to support cell viability. Drug screening was performed as previously described^41,42. Shortly, cells were plated in 384-well plates (Greiner Bio-One) at 2000-3000 cells per well in technical triplicate. Seven different concentrations of TKIs or DMSO vehicle were added to reach a final volume of 40 μL per well. After 72 hours, 11 μL of Cell Titer Glo (Promega) was added to each well. Plates were incubated for a minimum of 10 minutes, and bioluminescence was determined using a FLUOstar OPTIMA plate reader (BMG LABTECH). Raw bioluminescence values were normalized to DMSO control treated cells, and values were plotted in GraphPad Prism. […] Drug screens were performed in technical triplicate on each plate and either duplicate or triplicate biological replicates.

EGFR S768I/T790M = target: T10, EGFR S768I/T790M (Homo sapiens, UniProt P00533, S768I/T790M); conditions: T790M-like-3S, 72 hours
T10 construct: expressed in transfected cells; host or cells: Ba/F3
Protocol: as §2, §1, §3

EGFR L858R T790M L792H = target: T11, EGFR L858R T790M L792H (Homo sapiens, UniProt P00533, L792H/L858R/T790M); conditions: T790M-like-3S, 72 hours
T11 construct: expressed in transfected cells; host or cells: Ba/F3

EGFR Ex19del T790M L718V = target: T12, EGFR Ex19del T790M L718V (Homo sapiens, UniProt P00533, DEL746-750/L718V/T790M); conditions: T790M-like-3S, 72 hours
T12 construct: expressed in transfected cells; host or cells: Ba/F3
Protocol: as §2, §1, §3

EGFR Ex19del/T790M/L792H = target: T13, EGFR Ex19del/T790M/L792H (Homo sapiens, UniProt P00533, DEL746-750/L792H/T790M); conditions: T790M-like-3R, 72 hours
T13 construct: expressed in transfected cells; host or cells: Ba/F3

EGFR E709A G719S = target: T14, EGFR E709A G719S (Homo sapiens, UniProt P00533, E709A/G719S); conditions: Ba/F3 cells, EGFR E709A G719S (PACC), Mut/WT
T14 construct: expressed in transfected cells; host or cells: Ba/F3
Protocol: (§4) Data represent the ratio of the IC50 value for a given TKI for cells with a PACC EGFR mutation to the IC50 value for cells with wildtype EGFR.
as §1, §3

EGFR E709A = target: T15, EGFR E709A (Homo sapiens, UniProt P00533, E709A); conditions: Ba/F3 cells, EGFR E709A (PACC), Mut/WT
T15 construct: expressed in transfected cells; host or cells: Ba/F3
Protocol: as §4, §1, §3

EGFR G724S = target: T16, EGFR G724S (Homo sapiens, UniProt P00533, G724S); conditions: Ba/F3 cells, EGFR G724S (PACC), Mut/WT
T16 construct: expressed in transfected cells; host or cells: Ba/F3
Protocol: as §4, §1, §3

EGFR I740dupIPVAK = conditions: Ba/F3 cells, EGFR I740dupIPVAK (PACC), Mut/WT
Protocol: as §4, §1, §3

EGFR L747P = target: T17, EGFR L747P (Homo sapiens, UniProt P00533, L747P); conditions: Ba/F3 cells, EGFR L747P (PACC), Mut/WT
T17 construct: expressed in transfected cells; host or cells: Ba/F3
Protocol: as §4, §1
(§5) After 48-72 hours of transduction, 2 μg/ml puromycin (Invitrogen) was added to Ba/F3 cell lines in complete RPMI. To select for EGFR positive cell lines, cells were stained with PE-EGFR (Biolegend) and sorted by FACS. After sorting, EGFR positive cells were maintained in RPMI containing 10% FBS, 1% penicillin/streptomycin, and 1 ng/ml EGF to support cell viability. Drug screening was performed as previously described^41,42. Shortly, cells were plated in 384-well plates (Greiner Bio-One) at 2000-3000 cells per well in technical triplicate. Seven different concentrations of TKIs or DMSO vehicle were added to reach a final volume of 40 μL per well. After 72 hours, 11 μL of Cell Titer Glo (Promega) was added to each well. Plates were incubated for a minimum of 10 minutes, and bioluminescence was determined using a FLUOstar OPTIMA plate reader (BMG LABTECH). Raw bioluminescence values were normalized to DMSO control treated cells, and values were plotted in GraphPad Prism. […] Drug screens were performed in technical triplicate on each plate and either duplicate or triplicate biological replicates. […] Statistical differences between groups were determined by ANOVA as described in the figure legends.

EGFR S768I = target: T18, EGFR S768I (Homo sapiens, UniProt P00533, S768I); conditions: Ba/F3 cells, EGFR S768I (PACC), Mut/WT
T18 construct: expressed in transfected cells; host or cells: Ba/F3
Protocol: as §4, §1, §5

EGFR S768I/V769L = target: T19, EGFR S768I/V769L (Homo sapiens, UniProt P00533, S768I/V769L); conditions: Ba/F3 cells, EGFR S768I/V769L (PACC), Mut/WT
T19 construct: host or cells: Ba/F3

EGFR S768I V774M = target: T20, EGFR S768I V774M (Homo sapiens, UniProt P00533, S768I/V774M); conditions: Ba/F3 cells, EGFR S768I V774M (PACC), Mut/WT
T20 construct: host or cells: Ba/F3

EGFR V769L = target: T21, EGFR V769L (Homo sapiens, UniProt P00533, V769L); conditions: Ba/F3 cells, EGFR V769L (PACC), Mut/WT
T21 construct: expressed in transfected cells; host or cells: Ba/F3
Protocol: as §4, §1, §3

EGFR V774M = target: T22, EGFR V774M (Homo sapiens, UniProt P00533, V774M); conditions: Ba/F3 cells, EGFR V774M (PACC), Mut/WT
T22 construct: host or cells: Ba/F3

EGFR R776C = target: T23, EGFR R776C (Homo sapiens, UniProt P00533, R776C); conditions: Ba/F3 cells, EGFR R776C (PACC), Mut/WT
T23 construct: host or cells: Ba/F3

EGFR L858R/L718V = target: T24, EGFR L858R/L718V (Homo sapiens, UniProt P00533, L718V/L858R); conditions: Ba/F3 cells, EGFR L858R/L718V (PACC), Mut/WT
T24 construct: host or cells: Ba/F3
Protocol: as §4, §1, §3

EGFR L858R L718Q = target: T25, EGFR L858R L718Q (Homo sapiens, UniProt P00533, L718Q/L858R); conditions: Ba/F3 cells, EGFR L858R L718Q (PACC), Mut/WT
T25 construct: host or cells: Ba/F3
Protocol: as §4, §1, §3

EGFR Ex19del L718Q = target: T26, EGFR Ex19del L718Q (Homo sapiens, UniProt P00533, DEL746-750/L718Q); conditions: Ba/F3 cells, EGFR Ex19del L718Q (PACC), Mut/WT
T26 construct: expressed in transfected cells; host or cells: Ba/F3
Protocol: as §4, §1, §3

ratio of IC50 for cells with mutant EGFR to IC50 for cells with wildtype EGFR (Mut/WT) (EGFR S784F): 0.3727
ratio of IC50 for cells with mutant EGFR to IC50 for cells with wildtype EGFR (Mut/WT) (EGFR L861Q): 0.1616
ratio of IC50 for cells with mutant EGFR to IC50 for cells with wildtype EGFR (Mut/WT) (EGFR S811F): 0.0351
ratio of IC50 for cells with mutant EGFR to IC50 for cells with wildtype EGFR (Mut/WT) (EGFR N771dupN): 3.012
ratio of IC50 for cells with mutant EGFR to IC50 for cells with wildtype EGFR (Mut/WT) (EGFR N771dupN G724S): 2.781
ratio of IC50 for cells with mutant EGFR to IC50 for cells with wildtype EGFR (Mut/WT) (EGFR T790M): 0.4037
ratio of IC50 for cells with mutant EGFR to IC50 for cells with wildtype EGFR (Mut/WT) (EGFR L858R/T790M): 0.01398
ratio of IC50 for cells with mutant EGFR to IC50 for cells with wildtype EGFR (Mut/WT) (EGFR G719A T790M): 0.08702
ratio of IC50 for cells with mutant EGFR to IC50 for cells with wildtype EGFR (Mut/WT) (EGFR G719S T790M): 0.1409
ratio of IC50 for cells with mutant EGFR to IC50 for cells with wildtype EGFR (Mut/WT) (EGFR S768I/T790M): 0.1426
ratio of IC50 for cells with mutant EGFR to IC50 for cells with wildtype EGFR (Mut/WT) (EGFR L858R T790M L792H): 0.03529
ratio of IC50 for cells with mutant EGFR to IC50 for cells with wildtype EGFR (Mut/WT) (EGFR Ex19del T790M L718V): 0.02994
ratio of IC50 for cells with mutant EGFR to IC50 for cells with wildtype EGFR (Mut/WT) (EGFR Ex19del/T790M/L792H): 4.634
ratio of the IC50 value for cells with a PACC EGFR mutation to the IC50 value for cells with wildtype EGFR (EGFR E709A G719S): 0.3574
ratio of the IC50 value for cells with a PACC EGFR mutation to the IC50 value for cells with wildtype EGFR (EGFR E709A): 0.0743
ratio of the IC50 value for cells with a PACC EGFR mutation to the IC50 value for cells with wildtype EGFR (EGFR G724S): 1.174
ratio of the IC50 value for cells with a PACC EGFR mutation to the IC50 value for cells with wildtype EGFR (EGFR I740dupIPVAK): 0.5025
ratio of the IC50 value for cells with a PACC EGFR mutation to the IC50 value for cells with wildtype EGFR (EGFR L747P): 3.507
ratio of the IC50 value for cells with a PACC EGFR mutation to the IC50 value for cells with wildtype EGFR (EGFR S768I): 1.09
ratio of the IC50 value for cells with a PACC EGFR mutation to the IC50 value for cells with wildtype EGFR (EGFR S768I/V769L): 1.734
ratio of the IC50 value for cells with a PACC EGFR mutation to the IC50 value for cells with wildtype EGFR (EGFR S768I V774M): 0.4917
ratio of the IC50 value for cells with a PACC EGFR mutation to the IC50 value for cells with wildtype EGFR (EGFR V769L): 1.624
ratio of the IC50 value for cells with a PACC EGFR mutation to the IC50 value for cells with wildtype EGFR (EGFR V774M): 0.2862
ratio of the IC50 value for cells with a PACC EGFR mutation to the IC50 value for cells with wildtype EGFR (EGFR R776C): 4.27
ratio of the IC50 value for cells with a PACC EGFR mutation to the IC50 value for cells with wildtype EGFR (EGFR L858R/L718V): 3.358
ratio of the IC50 value for cells with a PACC EGFR mutation to the IC50 value for cells with wildtype EGFR (EGFR L858R L718Q): 5.547
ratio of the IC50 value for cells with a PACC EGFR mutation to the IC50 value for cells with wildtype EGFR (EGFR Ex19del L718Q): 0.05586
Structure (SMILES): C=CC(=O)N1CC[C@@H](Oc2nc(Nc3ccc(N4CCC(N5CCN(C)CC5)CC4)cc3)c(C(N)=O)nc2CC)C1 [Naquotinib]
